Source: patent US9216964B2, “Hedgehog pathway modulators” (Novartis AG, priority 2008, dated 2015)
Where two headings read alike, the source gives them in different places. Blank lines part the entries; values can stand above or below the molecule they belong to.

Tested on: hedgehog signaling pathway
Assay: Gli-Luc Reporter Assay for Hh Pathway Inhibition (TMHh-12 cells, pTA-8×Gli-Luc reporter)
Assay type: cell-based, Mouse
Protocol: Compounds of the present invention are assayed to evaluate their capacity to inhibit the hedgehog signaling pathway.
Gli-Luc Reporter Assay for Hh Pathway Inhibition
Mouse TM3 cells (obtained from American Type Culture Collection, ATCC, Manassas, Va.) are cultured in DMEM/F12 medium (Gibco/Invitrogen, Carlsbad, Calif.) supplemented with 5% heat inactivated horse serum and 2.5% FBS (Gibco/Invitrogen, Carlsbad, Calif.), 50 unit/mL penicillin and 50 μg/mL of streptomycin (Gibco/Invitrogen, Carlsbad, Calif.) at […] with 5% CO2 in air atmosphere. TM3 cells were transfected with pTA-8×Gli-Luc reporter plasmid. A stably transfected clone termed TMHh-12 was selected. […] To evaluate the IC50s of the antagonists, 8000 TMHh-12 cells were plated into each wells in 384-well plates with 50% DMEM/F12 medium supplemented with 2% FBS. After 12 hours, Hh pathway is activated by adding recombinant mouse Shh protein (expressed in E. coli, 8 μg/mL) or by adding Smo agonists. The testing compounds are added into plates with different concentrations. After 48 hours, the firefly luciferase luciferase activities are assayed with the Bright-Glo™ Luciferase Assay System (Promega, Madison, Wis.). The IC50 is measured when the effect of the compound reduces the luminescence signal by 50%. Toxicity of these compounds are evaluated in TM3 cells using CellTiter Glo assays or by TM3-Luc cell line (a TM3 cell stably transfected with a constitutive luciferase expression vector).

[1] = Mus musculus, TMHh12, Ag1.5 1 nM, read-out: Hedgehog Inhibition IC50 (nM) (Ag1.5 1 nM)
[2] = Mus musculus, TMHh12, enzymatic and cellular assays for the inhibition of hedgehog signaling pathways, read-out: IC50 Ranges

SMILES: CC(CO)(CO)C(=O)N1CCc2c(cccc2Nc2ccc(Cl)c(-c3ncc(-c4ccccc4)[nH]3)c2)C1 [Compound 2]
IC50 [1]: 0.45 nM | IC50 [2]: 0.001 to 1 nM

SMILES: O=S1(=O)CCC(N2CCc3c(cccc3Nc3ccc(Cl)c(-c4ncc(-c5ccccc5)[nH]4)c3)C2)CC1 [Compound 3]
IC50 [1]: 0.06 nM | IC50 [2]: 0.001 to 1 nM

SMILES: CS(=O)(=O)N1CCc2c(cccc2Nc2ccc(Cl)c(-c3ncc(-c4ccccc4)[nH]3)c2)C1 [Compound 4]
IC50 [2]: 0.001 to 1 nM

SMILES: Cc1ccc(Nc2cccc3c2CCN(S(C)(=O)=O)C3)cc1-c1nc2ccccc2[nH]1 [Compound 5]
IC50 [1]: 0.1 nM | IC50 [2]: 0.001 to 1 nM

SMILES: CS(=O)(=O)CC(=O)N1CCc2c(cccc2Nc2ccc(Cl)c(-c3ncc(-c4ccccc4)[nH]3)c2)C1 [Compound 7]
IC50 [1]: 0.25 nM | IC50 [2]: 0.001 to 1 nM

SMILES: O=C(C(O)CO)N1CCc2c(cccc2Nc2ccc(Cl)c(-c3ncc(-c4ccccc4)[nH]3)c2)C1 (centres unmarked) [Compound 9]
IC50 [2]: 0.001 to 1 nM

SMILES: CC(O)C(=O)N1CCc2c(cccc2Nc2ccc(Cl)c(-c3ncc(-c4ccccc4)[nH]3)c2)C1 (centres unmarked) [Compound 10]
IC50 [2]: 0.001 to 1 nM

SMILES: CC(=O)N1CCC(N2CCc3c(cccc3Nc3ccc(Cl)c(-c4ncc(-c5ccccc5)[nH]4)c3)C2)CC1 [Compound 11]
IC50 [2]: 0.001 to 1 nM

SMILES: [O-][S+]1CCC(N2CCc3c(cccc3Nc3ccc(Cl)c(-c4ncc(-c5ccccc5)[nH]4)c3)C2)CC1 (centres unmarked) [Compound 12]
IC50 [2]: 0.001 to 1 nM

SMILES: C[C@H](O)C(=O)N1CCc2c(cccc2Nc2ccc(Cl)c(-c3ncc(-c4ccccc4)[nH]3)c2)C1 [Compound 20]
IC50 [2]: 1 to 10 nM

SMILES: CC1(C)CC(N2CCc3c(cccc3Nc3ccc(Cl)c(-c4ncc(-c5ccccc5)[nH]4)c3)C2)CC(C)(C)N1 [Compound 21]
IC50 [1]: 0.86 nM | IC50 [2]: 0.001 to 1 nM

SMILES: Clc1ccc(Nc2cccc3c2CCN(C2CCCCC2)C3)cc1-c1ncc(-c2ccccc2)[nH]1 [Compound 22]
IC50 [2]: 1 to 10 nM

SMILES: CNS(=O)(=O)N1CCc2c(cccc2Nc2ccc(Cl)c(-c3ncc(-c4ccccc4)[nH]3)c2)C1 [Compound 25]
IC50 [2]: 1 to 10 nM

SMILES: [O-][S+]1CCC([N+]2([O-])CCc3c(cccc3Nc3ccc(Cl)c(-c4ncc(-c5ccccc5)[nH]4)c3)C2)CC1 (centres unmarked) [Compound 26]
IC50 [2]: 1 to 10 nM

SMILES: O=C([C@@H](O)CO)N1CCc2c(cccc2Nc2ccc(Cl)c(-c3nc(-c4ccccc4)c[nH]3)c2)C1 [Compound 27]
IC50 [2]: 0.001 to 1 nM

SMILES: CC1(C)OC[C@H](CN2CCC(N3CCc4c(cccc4Nc4ccc(Cl)c(-c5ncc(-c6ccccc6)[nH]5)c4)C3)CC2)O1 [Compound 28]
IC50 [2]: 1 to 10 nM

Continued, values first:

IC50 (enzymatic and cellular assays for the inhibition of hedgehog signaling pathways, read-out: IC50 Ranges): 0.001 to 1 nM
SMILES: [O-][S+]1CCC(N2CCc3c(cccc3Nc3ccc(Cl)c(-c4ncc(-c5ccccc5)[nH]4)c3)C2)CC1 (centres unmarked) [Compound 1]

IC50 [2]: 0.001 to 1 nM
SMILES: CCN1CCC(N2CCc3c(cccc3Nc3ccc(Cl)c(-c4ncc(-c5ccccc5)[nH]4)c3)C2)CC1 [Compound 6]

IC50 [2]: 0.001 to 1 nM
SMILES: C[C@@H](O)C(=O)N1CCc2c(cccc2Nc2ccc(Cl)c(-c3ncc(-c4ccccc4)[nH]3)c2)C1 [Compound 8]

IC50 [1]: 1.6 nM | IC50 [2]: 1 to 10 nM
SMILES: NS(=O)(=O)N1CCc2c(cccc2Nc2ccc(Cl)c(-c3ncc(-c4ccccc4)[nH]3)c2)C1 [Compound 13]

IC50 [2]: 0.001 to 1 nM
SMILES: CC(C)(CO)C(=O)N1CCc2c(cccc2Nc2ccc(Cl)c(-c3ncc(-c4ccccc4)[nH]3)c2)C1 [Compound 14]

IC50 [2]: 0.001 to 1 nM
SMILES: COc1ccc2[nH]c(-c3cc(Nc4cccc5c4CCN(S(C)(=O)=O)C5)ccc3C)nc2c1 [Compound 15]

IC50 [1]: 3.8 nM | IC50 [2]: 1 to 10 nM
SMILES: CN(C)c1ccc2nc(-c3cc(Nc4cccc5c4CCN(S(C)(=O)=O)C5)ccc3Cl)[nH]c2c1 [Compound 16]

IC50 [2]: 0.001 to 1 nM
SMILES: O=S(=O)(NCCO)N1CCc2c(cccc2Nc2ccc(Cl)c(-c3ncc(-c4ccccc4)[nH]3)c2)C1 [Compound 17]

IC50 [2]: 0.001 to 1 nM
SMILES: OC[C@H](O)CN1CCc2c(cccc2Nc2ccc(Cl)c(-c3ncc(-c4ccccc4)[nH]3)c2)C1 [Compound 18]

IC50 [2]: 0.001 to 1 nM
SMILES: C[S+]([O-])CC(=O)N1CCc2c(cccc2Nc2ccc(Cl)c(-c3ncc(-c4ccccc4)[nH]3)c2)C1 (centres unmarked) [Compound 19]

IC50 [1]: 2 nM | IC50 [2]: 1 to 10 nM
SMILES: Clc1ccc(Nc2cccc3c2CCN(CC2CCCCC2)C3)cc1-c1ncc(-c2ccccc2)[nH]1 [Compound 23]
